Experimental findings from patent US20250228814A1, “COMBINATION THERAPIES FOR THE TREATMENT OF VIRAL INFECTIONS” (Flagship Pioneering Innovations VI, LLC, priority 2022, published 2025) are described below.

Where two headings read alike, the source gives them in different places. Some results are limits rather than exact numbers.

The subject of data set [1] is SARS-CoV-2. As to conditions: for Cell viability: ginkgetin 0 μM, 72 h, normalized to remdesivir 5 μM alone.
Data set [2] has as its system SARS-CoV-2. Put plainly: microbe, parasite or virus in culture.
Data set [3] deals with SARS-CoV-2. It is filed as cell-based. Conditions: remdesivir alone, dose-dependent (FIG. 1).
Data set [4] relates to SARS-CoV-2 virus [B.1.351]. The data set is classed as in vivo, mice. Conditions: in words.
Where [5] appears, read: Severe acute respiratory syndrome coronavirus 2, Vero C1008, 72 h, read-out: Cell viability.
Setting [6] is: Severe acute respiratory syndrome coronavirus 2, Vero C1008, read-out: host cell viability.

Turning to `COc1cc(O)c2c(=O)cc(-c3ccc(OC)c(-c4c(O)cc(O)c5c(=O)cc(-c6ccc(O)cc6)oc45)c3)oc2c1` [Ginkgetin], the viability in the data set on SARS-CoV-2 [1] (1.5625-6.25 μM of ginkgetin alone) was 18-24%. Also, the host cell viability entry in the data set on SARS-CoV-2 [1] (ginkgetin (25-50 μM) alone, in words) is on record as “modest improvements in host cell viability”. Also, in the data set with SARS-CoV-2 [2] (setting [5]), the viability at 1.563 µM was determined as 18.4%, the viability at 3.125 µM is 17.1%, the viability at 6.25 µM was 24.5% and the viability at 12.5 µM was 46.5%. In the data set with SARS-CoV-2 [2] (setting [5]), the viability at 25 µM came out at 42.6%, the viability at 50 µM stood at 32.3% and the viability at 100 µM turned out to be 40.4%. Further, the viability at 100 µM with SARS-CoV-2 [2] (setting [6]) is no more than 40%.

For the compound `CCC(CC)COC(=O)[C@H](C)N[P@](=O)(OC[C@H]1O[C@@](C#N)(c2ccc3c(N)ncnn23)[C@H](O)[C@@H]1O)Oc1ccccc1` [Remdesivir], the “viral titers of SARS-CoV-2” value in the data set on SARS-CoV-2 [3] was “zero”. The “infectious titers in lung” value is reported as “strongest antiviral effect in reducing infectious titer” in data set [4] (remdesivir 25 mg/kg intraperitoneally daily, day 4 post infection) and “dose-dependent effect on reducing infectious titers” in data set [4] (remdesivir 5, 10 or 25 mg/kg intraperitoneally daily from day 1 post infection, day 4 post infection (FIG. 2)). Further, the Cell viability is on record as 22.2% with SARS-CoV-2 [1] (remdesivir 0.3125 μM), 23.2% in the data set on SARS-CoV-2 [1] (remdesivir 0.625 μM), 28.1% in the data set on SARS-CoV-2 [1] (remdesivir 1.25 μM) and 37.6% in the data set with SARS-CoV-2 [1] (remdesivir 2.5 μM). The “host cell viability of SARS-CoV-2-infected Vero E6 cells” value with SARS-CoV-2 [1] (remdesivir (5 μM) alone, in words) is recorded as “dose-dependently improved host cell viability”. The viability at 5 µM in the data set on SARS-CoV-2 [2] (setting [5]) amounted to 100%. The viability at 1.25 µM in the data set with SARS-CoV-2 [2] (setting [6]) was determined as 29%. Also, the viability at 2.5 µM with SARS-CoV-2 [2] (setting [6]) amounted to 39%.
